The values below come from publication PMC7765298, “EGFR-Binding Peptides: From Computational Design towards Tumor-Targeting of Adeno-Associated Virus Capsids” (International Journal of Molecular Sciences, 2020).

One assay addresses EGFR. The settings on record: dissociation constant described for EGFR-binding peptide GE11; cited from earlier work.
Another assay concerns A431 cells. Kind of assay: Wound healing assay. The settings on record: 1 nM recombinant human EGF in RPMI medium, positive control. Format: cell-based. As to the method:
Since biophysical measurements are confounded by the intrinsic diversity of receptor conformations and imaging of moderate binding is difficult, we assessed peptide activity using a cell-based functional assay. Epidermoid tumor cell line A431 depends on EGF signaling for proliferation and migration, which can be assessed by wound healing assays monitoring the closure of a scratch in a cell lawn. A431 cells were grown to a confluent cell monolayer, serum-starved, and scratched. The resulting gap was monitored by microscopy and measured over a 6-h period (Figure 3A). As a positive, control cells were treated with 1 nM recombinant human EGF (hEGF) in RPMI medium. Cell migration in µm/h was calculated from a linear regression of the gap area over time plotted against time (Figure S6). […]
Figure 3 Effect of EGFR-directed peptides in the presence of the natural EGFR-ligand EGF in a wound healing assay with A431 cells. […] The yellow cell borders were detected by image recognition using ImageJ. […] (B) Bar chart presenting the cell migration velocity as determined from microscopy images. […]
Figure S6. […] The gap area over time is analyzed for each sample.
Areas were calculated using ImageJ. Linear regressions were calculated to determine to growth rate. […]

Broadly, the Kd is the constant that tells how readily two partners part at equilibrium. With YHWYGYTPQNVI [GE11], the Kd at EGFR is 459 µM.

Turning to “hEGF: recombinant human epidermal growth factor, positive control”, the “increase in cell migration compared to negative control (buffer)” value in the assay on A431 cells was “three-fold increase”.
